According to patent US4277477A, “Method of using 1,2-benzisothiazoles” (BASF Aktiengesellschaft, priority 1977, dated 1981):
Structures can show the parent of a compound that is named as a salt.

What was measured:
in vivo = type: in vivo, rats (Sprague Dawley); conditions: rat, in vivo; rats, oral; read-out: Maximum effect, Dose (maximum nontoxic dose)
Procedure: (§1) The anti-arrhythmic activity of the compounds is determined by orally administering these to rats (Sprague Dawley, weight: 180-240 g) 45 minutes before the start of narcosis (100 mg/kg of thiobutabarbital, administered intraperitoneally).
(§2) The arrhythmogenous substance used was aconitine, administered by intravenous infusion (at the rate of 0.005 mg/kg. minute) 60 minutes after administration of the benzisothiazole derivative.
(§3) for a quantitative evaluation of the linear relation between the logarithm of the dose (mg/kg) of the test substances and the relative increase in the duration of infusion of aconitine (Δ%), the dose which increases the duration of infusion by 50% (ED 50%) was determined.

[1] = system: Aconitineinduced arrhythmia in rats; assay: in vivo; type: in vivo, rats (Sprague Dawley); conditions: oral
Procedure: as §1, §2, §3

female Swiss mice = conditions: LD 50 mice i.p. / ED 50% rats oral
Procedure: The acute toxicity was determined on groups of 10 or 20 female Swiss mice weighing 20-26 g, using intraperitoneal administration.

Structure (SMILES) | MTD (in vivo) [mg/kg] | antiarrhythmic activity, times greater than that of procainamide [1] | therapeutic range (LD 50/ED 50%), times greater than for procainamide (female Swiss mice) [times] | Antiarrhythmic effect, R.E. (relative effect; procainamide = 1.00) ([1]; relative to procainamide)
CCN(CC)CCNC(=O)c1ccc(N)cc1 [Procainamide, procainamide, reference compound] | 681 |  |  | 
c1ccc2c(-c3ccc(C4=NCCCN4)cc3)nsc2c1 [Example 2, 3-[4'-(Tetrahydropyrimidin-2"-yl)-phenyl]-1,2-benzisothiazole hydrochloride] | 215 | about 5 times | 4 | 
CC1CN=C(c2ccc(-c3nsc4ccccc34)cc2)N1 (centres unmarked) [Example 3, 3-[4'-(Methylimidazolin-2"-yl)-phenyl]-1,2-benzisothiazole hydrochloride] | 215 | about 5 times | 2.8 | 4.80
